Experimental findings from US20120172384A1, “HETEROCYCLYLAMINOPYRIMIDINES AS KINASE INHIBITORS” (priority 2009, published 2012) are described below.

Some results are limits rather than exact numbers.

The target in the test is T1, JAK3 (Homo sapiens, UniProt P52333).
T1 construct: endogenous in cells
T1 sequence (P52333 1-1124): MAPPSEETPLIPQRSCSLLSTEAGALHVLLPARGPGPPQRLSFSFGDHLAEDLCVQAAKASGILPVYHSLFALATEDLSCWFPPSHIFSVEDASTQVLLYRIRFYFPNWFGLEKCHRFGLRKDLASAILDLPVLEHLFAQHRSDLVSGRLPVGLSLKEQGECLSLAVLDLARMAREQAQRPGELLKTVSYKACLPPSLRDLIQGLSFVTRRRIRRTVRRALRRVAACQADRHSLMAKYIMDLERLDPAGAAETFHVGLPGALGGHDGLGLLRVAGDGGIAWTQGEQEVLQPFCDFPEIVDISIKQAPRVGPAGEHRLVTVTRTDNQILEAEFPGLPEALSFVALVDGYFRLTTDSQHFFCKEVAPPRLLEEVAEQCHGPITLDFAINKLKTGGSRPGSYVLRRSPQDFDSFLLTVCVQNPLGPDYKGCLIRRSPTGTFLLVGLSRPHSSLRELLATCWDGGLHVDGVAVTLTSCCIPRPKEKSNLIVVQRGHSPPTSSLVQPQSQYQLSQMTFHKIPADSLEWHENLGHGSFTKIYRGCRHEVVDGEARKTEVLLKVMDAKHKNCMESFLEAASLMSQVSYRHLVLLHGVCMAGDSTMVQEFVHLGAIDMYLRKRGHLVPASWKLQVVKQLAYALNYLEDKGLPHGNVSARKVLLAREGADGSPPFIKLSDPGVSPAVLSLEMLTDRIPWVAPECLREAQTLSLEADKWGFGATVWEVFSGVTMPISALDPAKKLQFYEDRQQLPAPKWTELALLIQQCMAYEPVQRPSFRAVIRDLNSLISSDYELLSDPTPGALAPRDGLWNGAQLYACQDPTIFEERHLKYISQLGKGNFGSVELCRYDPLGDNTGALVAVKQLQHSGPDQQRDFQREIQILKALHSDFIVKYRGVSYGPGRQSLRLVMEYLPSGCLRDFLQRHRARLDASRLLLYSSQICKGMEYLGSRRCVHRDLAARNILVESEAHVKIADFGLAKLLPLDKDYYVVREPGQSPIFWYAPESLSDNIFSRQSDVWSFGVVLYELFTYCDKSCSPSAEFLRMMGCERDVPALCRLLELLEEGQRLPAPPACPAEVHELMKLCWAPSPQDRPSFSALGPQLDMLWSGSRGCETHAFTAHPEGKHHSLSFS
Briefly: JAK3 kinobeads assay. The class given is binding. The note with it: cell lysate, dot blot with JAK3 specific antibody. How it is done: The compounds of the present invention as described in the previous examples were tested in the ZAP-70 kinobeads assay as described (EP-A 1862802 and WO-A 2007/137867). Briefly, test compounds (at various concentrations) and the affinity matrix with the immobilized aminopyrido-pyrimidine ligand 24 are added to cell lysate aliquots and allowed to bind to the proteins in the lysate sample. After the incubation time the beads with captured proteins are separated from the lysate. Bound proteins are then eluted and the presence ZAP-70 is detected and quantified using a specific antibody in a dot blot procedure and the Odyssey infrared detection system.
Compounds were tested by the procedure described in Example 102 but using a JAK3 specific antibody (Cell Signaling Technology, Inc., Danvers, US, catalogue number 3775) instead of a ZAP70 antibody.
`CCNC(=O)c1cc(Nc2ncc(Cl)c(Nc3ccccc3NS(C)(=O)=O)n2)nn1C` [Example 100, 3-((5-chloro-4-((2-(methylsulfonamido)phenyl)amino)pyrimidin-2-yl)amino)-N-ethyl-1-methyl-1H-pyrazole-5-carboxamide]: the 50% inhibitory concentration (IC50) was ≤ 0.1 µM.
The value for `Cc1cc(Nc2ncc(Cl)c(Nc3ccccc3NS(=O)(=O)C3CC3)n2)nn1C` [Example 55, N-(2-((5-chloro-2-((1,5-dimethyl-1H-pyrazol-3-yl)amino)pyrimidin-4-yl)amino)phenyl)cyclopropanesulfonamide] was 0.1 to 1 µM; that for `CCS(=O)(=O)Nc1ccccc1Nc1nc(Nc2cnn(C)c2)ncc1F` [Example 62, N-(2-((5-fluoro-2-((1-methyl-1H-pyrazol-4-yl)amino)pyrimidin-4-yl)amino)phenyl)ethanesulfonamide] was 0.1 to 1 µM.
In the case of `COc1ccc(Nc2nc(Nc3ccn(C(C)C)n3)ncc2F)c(NS(C)(=O)=O)c1` [Example 48, N-(2-((5-fluoro-2-((1-isopropyl-1H-pyrazol-3-yl)amino)pyrimidin-4-yl)amino)-5-methoxyphenyl)methanesulfonamide] it was 0.1 to 1 µM; in that of `CCS(=O)(=O)Nc1ccccc1Nc1nc(Nc2cc(C)n(C)n2)ncc1F` [Example 61, N-(2-((2-((1,5-dimethyl-1H-pyrazol-3-yl)amino)-5-fluoropyrimidin-4-yl)amino)phenyl)ethanesulfonamide], 1 to 10 µM.
On to `Cn1cc(Nc2ncc(F)c(Nc3cccc(F)c3NS(C)(=O)=O)n2)cn1` [Example 99, N-(2-fluoro-6-((5-fluoro-2-((1-methyl-1H-pyrazol-4-yl)amino)pyrimidin-4-yl)amino)phenyl)methanesulfonamide], for which the IC50 is ≤ 0.1 µM.
Consider `COc1ccc(Nc2nc(Nc3cc(C(C)(C)C)nn3C)ncc2Cl)c(NS(C)(=O)=O)c1` [Example 10, N-(2-(2-(3-tert-butyl-1-methyl-1H-pyrazol-5-ylamino)-5-chloropyrimidin-4-ylamino)-5-methoxyphenyl)methanesulfonamide], for which the IC50 lay in the range of 1 to 10 µM.
The value for `CC(C)n1ccc(Nc2ncc(Br)c(Nc3ccccc3NS(C)(=O)=O)n2)n1` [Example 49, N-(2-((5-bromo-2-((1-isopropyl-1H-pyrazol-3-yl)amino)pyrimidin-4-yl)amino)phenyl)methanesulfonamide] was ≤ 0.1 µM.
With `CCS(=O)(=O)Nc1ccccc1Nc1nc(Nc2ccn(C)n2)ncc1Cl` [Example 56, N-(2-((5-chloro-2-((1-methyl-1H-pyrazol-3-yl)amino)pyrimidin-4-yl)amino)phenyl)ethanesulfonamide], the IC50 was in the range of 0.1 to 1 µM.
With `Cc1nn(CC(F)F)cc1Nc1ncc(F)c(Nc2ccccc2NS(C)(=O)=O)n1` [Example 72, N-(2-((2-((1-(2,2-difluoroethyl)-3-methyl-1H-pyrazol-4-yl)amino)-5-fluoropyrimidin-4-yl)amino)phenyl)methanesulfonamide], the IC50 is 0.1 to 1 µM.
As for `Cn1cc(Nc2ncc(Cl)c(Nc3cccc(F)c3NS(C)(=O)=O)n2)cn1` [Example 89, N-(2-((5-chloro-2-((1-methyl-1H-pyrazol-4-yl)amino)pyrimidin-4-yl)amino)-6-fluorophenyl)methanesulfonamide], the half-maximal inhibitory concentration (IC50) was ≤ 0.1 µM.
In the case of `CCn1nc(Nc2ncc(Cl)c(Nc3cccc(F)c3NS(C)(=O)=O)n2)cc1C` [Example 91, N-(2-((5-chloro-2-((1-ethyl-5-methyl-1H-pyrazol-3-yl)amino)pyrimidin-4-yl)amino)-6-fluorophenyl)methanesulfonamide], the IC50 is ≤ 0.1 µM.
Compound `CC(C)n1ccc(Nc2ncc(Cl)c(Nc3ccccc3NS(=O)(=O)C3CC3)n2)n1` [Example 54, N-(2-((5-chloro-2-((1-isopropyl-1H-pyrazol-3-yl)amino)pyrimidin-4-yl)amino)phenyl)cyclopropanesulfonamide] registered a concentration for half-maximal inhibition (IC50) of 1 to 10 µM.
With `Cn1nc(Nc2ncc(Cl)c(Nc3ccccc3NS(C)(=O)=O)n2)cc1C(=O)NCCO` [Example 101, 3-((5-chloro-4-((2-(methylsulfonamido)phenyl)amino)pyrimidin-2-yl)amino)-N-(2-hydroxyethyl)-1-methyl-1H-pyrazole-5-carboxamide], the concentration for half-maximal inhibition (IC50) was ≤ 0.1 µM.
The value for `Cc1cc(Nc2ncc(F)c(Nc3ccccc3NS(C)(=O)=O)n2)nn1CC(F)(F)F` [Example 75, N-(2-((5-fluoro-2-((5-methyl-1-(2,2,2-trifluoroethyl)-1H-pyrazol-3-yl)amino)pyrimidin-4-yl)amino)phenyl)methanesulfonamide] was 1 to 10 µM; that for `Cn1ccc(Nc2ncc(Cl)c(Nc3ccccc3NS(=O)(=O)C3CC3)n2)n1` [Example 53, N-(2-((5-chloro-2-((1-methyl-1H-pyrazol-3-yl)amino)pyrimidin-4-yl)amino)phenyl)cyclopropanesulfonamide] was 0.1 to 1 µM; that for `Cc1cc(Nc2ncc(Cl)c(Nc3ccccc3NS(C)(=O)=O)n2)nn1CC(F)(F)F` [Example 83, N-(2-((5-chloro-2-((5-methyl-1-(2,2,2-trifluoroethyl)-1H-pyrazol-3-yl)amino)pyrimidin-4-yl)amino)phenyl)methanesulfonamide] was 0.1 to 1 µM.
Turning to `COCCn1cc(Nc2ncc(Cl)c(Nc3ccccc3NS(C)(=O)=O)n2)cn1` [Example 52, N-(2-((5-chloro-2-((1-(2-methoxyethyl)-1H-pyrazol-4-yl)amino)pyrimidin-4-yl)amino)phenyl)methanesulfonamide], the 50% inhibitory concentration (IC50) was ≤ 0.1 µM.
The value for `CS(=O)(=O)Nc1ccccc1Nc1nc(Nc2cnn(CCCC#N)c2)ncc1F` [Example 66, N-(2-((2-((1-(3-cyanopropyl)-1H-pyrazol-4-yl)amino)-5-fluoropyrimidin-4-yl)amino)phenyl)methanesulfonamide] was ≤ 0.1 µM.
`COc1nn(CC(F)F)cc1Nc1ncc(F)c(Nc2ccccc2NS(C)(=O)=O)n1` [Example 73, N-(2-((2-((1-(2,2-difluoroethyl)-3-methoxy-1H-pyrazol-4-yl)amino)-5-fluoropyrimidin-4-yl)amino)phenyl)methanesulfonamide] had an IC50 of 0.1 to 1 µM.
Turning to `CCS(=O)(=O)Nc1ccccc1Nc1nc(Nc2cnn(C)c2)ncc1Cl` [Example 57, N-(2-((5-chloro-2-((1-methyl-1H-pyrazol-4-yl)amino)pyrimidin-4-yl)amino)phenyl)ethanesulfonamide], the concentration for half-maximal inhibition (IC50) was ≤ 0.1 µM.
Compound `COc1nn(CC(F)(F)F)cc1Nc1ncc(Cl)c(Nc2ccccc2NS(C)(=O)=O)n1` [Example 82, N-(2-((5-chloro-2-((3-methoxy-1-(2,2,2-trifluoroethyl)-1H-pyrazol-4-yl)amino)pyrimidin-4-yl)amino)phenyl)methanesulfonamide] had a concentration for half-maximal inhibition (IC50) of 0.1 to 1 µM.
`COc1nn(CC(F)(F)F)cc1Nc1ncc(F)c(Nc2ccccc2NS(C)(=O)=O)n1` [Example 74, N-(2-((5-fluoro-2-((3-methoxy-1-(2,2,2-trifluoroethyl)-1H-pyrazol-4-yl)amino)pyrimidin-4-yl)amino)phenyl)methanesulfonamide] had a concentration for half-maximal inhibition (IC50) of 1 to 10 µM.
For the compound `CS(=O)(=O)Nc1ccccc1Nc1nc(Nc2ccon2)ncc1Br` [Example 50, N-(2-((5-bromo-2-(isoxazol-3-ylamino)pyrimidin-4-yl)amino)phenyl)methanesulfonamide], the IC50 is ≤ 0.1 µM.
For `COc1ccc(Nc2nc(Nc3cc(C)n(C)n3)ncc2F)c(NS(C)(=O)=O)c1` [Example 47, N-(2-((2-((1,5-dimethyl-1H-pyrazol-3-yl)amino)-5-fluoropyrimidin-4-yl)amino)-5-methoxyphenyl)methanesulfonamide], the 50% inhibitory concentration (IC50) is 0.1 to 1 µM.
With `COc1nn(CC(F)F)cc1Nc1ncc(Cl)c(Nc2ccccc2NS(C)(=O)=O)n1` [Example 80, N-(2-((5-chloro-2-((1-(2,2-difluoroethyl)-3-methoxy-1H-pyrazol-4-yl)amino)pyrimidin-4-yl)amino)phenyl)methanesulfonamide], the 50% inhibitory concentration (IC50) is ≤ 0.1 µM.
